The values below come from US10933091B1, “Composition and method for the treatment of type I diabetes” (Vector Vitale IP LLC, priority 2019, dated 2021).

In data set [1] the test system is tryptophan, serotonin, monoamine oxidase. Put plainly: Serum tryptophan, serotonin and monoamine oxidase activity. It is filed as in vivo, rats. The text has this:
(§1) The samples were reprecipitated by centrifugation.
(§2) University. Medicine.-2000.-1, No. 494.-P. 40-43.

Data set [2] is described as follows: Intraperitoneal administration to intact rats: accumulation of metals in liver and kidney tissues. The conditions noted are these: day 1 and day 7 after discontinuation, in words.
Protocol: The administration of these compositions was by intraperitoneal route.
Animals are placed in cages, 4 per cage, with free access to food/water. […] Administration is performed every other day, in the amount of 7 injections per animal (intraperitoneal method of drug administration). The dose of the drug injected to each animal was calculated on the basis of the ratio: 3750 μg of zinc per 1 kg of animal body weight. After the last injection, a half of the animals are maintained on hunger (for 12 hours) with free access to water. Upon expiration of this time period, the animals are taken out of the experiment. The second half of the animals continues to have free access to food/water for a further 7 days. On day 6 after the last injection, the animals are maintained on hunger (for 12 hours) with free access to water. Upon expiration of this time period, the animals are taken out of the experiment.
The total kidney, liver and muscle homogenates were prepared as follows. Organ excision and homogenization were carried out at a temperature of 1-4° C. Homogenization of tissues was carried out in 50 mM Tris-HCl buffer (pH 7.4) which contained 140 mM NaCl, 1 mM EDTA. The volume of the used buffer in ml was 5 times larger than the mass of isolated organs in grams. The isolated liver was perfused with chilled saline (0.9% NaCl) via the portal vein using a syringe. […]
A short description of data set [3]: Levels of divalent metal ions in muscles, kidneys and liver, diet-induced obesity study. The conditions noted are these: DIO rats (high-fat diet).
Data set [4] deals with peripheral serotonergic system (duodenum). Put plainly: Indicators of the peripheral serotonergic system (duodenum). The class given is in vivo, rats.
From the text: (§3) The tissue: buffer ratio was 1:10.
as §1, §2
(§4) The supernatant was used in further studies.

In data set [5] the test system is central serotonergic system (brain). Put plainly: Indicators of the central serotonergic system (brain). The class given is in vivo, rats.
From the text: as §3, §1, §2, §4

The nature of data set [6]: Serum biochemistry (albumin, triglycerides, cholesterol, free fatty acids), diet-induced obesity study. The conditions noted are these: DIO rats (high-fat diet), week 10.
Protocol: The levels of serum albumin in the animals were determined spectrophotometrically using a Microlab 300 biochemistry analyzer and standard PLIVA-Lachema Diagnostika test kits (Czech Republic).
Data set [7] has as its system alkaline phosphatase. The conditions noted are these: serum; DIO rats (high-fat diet), week 10.
Protocol: To this end, high-fat diet obesity was induced in experimental animals as described in Example 2.
Serum alkaline phosphatase activity in the animals was measured spectrophotometrically using a Microlab 300 biochemical analyzer and standard PLIVA-Lachema Diagnostika test kits (Czech Republic).
As a result of hydrolytic cleavage of p-nitrophenyl phosphate catalyzed by alkaline phosphatase, p-nitrophenol is formed, which gives an intense yellow color in alkaline medium. The optical density of samples was measured at a wavelength of 405 nm. The alkaline phosphatase activity was expressed in relative units.

Consider `N[C@@H](CC(=O)[O-])C(=O)[O-].[Zn+2]` [^64Zne, zinc aspartate], for which the Serotonin came to 6.33 ± 0.51 µg/g in data set [1] (DIO rats (high-fat diet)); 10.16 ± 0.62 µg/g in data set [1] (control rats (standard diet)); 9.73 µg/g in data set [4] (DIO rats (high-fat diet)); 7.41 ± 0.54 µg/g in data set [4] (control rats (standard diet)); 20.1 µg/g in data set [5] (DIO rats (high-fat diet)); 25.51 ± 2.71 µg/g in data set [5] (control rats (standard diet)). Also, the Tryptophan in data set [1] (DIO rats (high-fat diet)) stood at 66.65 ± 9.62 µg/g; in data set [1] (control rats (standard diet)) it was 56.12 ± 7.58 µg/g; in data set [4] (DIO rats (high-fat diet)) it was 89.4 µg/g; in data set [4] (control rats (standard diet)), 154.7 ± 13.6 µg/g; in data set [5] (DIO rats (high-fat diet)), 31.56 µg/g; in data set [5] (control rats (standard diet)), 87.71 ± 3.41 µg/g. In addition, the “zinc level in kidney and liver tissues” value in data set [2] was “significantly increased”. In addition, the Zinc level in data set [3] (kidneys) amounted to 20.28 ± 1.75 μg/ tissue; in data set [3] (liver) it was 31.43 ± 1.78 μg/ tissue; in data set [3] (muscles) it was 9.10 ± 0.42 μg/ tissue. In data set [6], this compound displayed an Albumin levels of 166.2 ± 15.8 RU. Also, the Cholesterol in data set [6] stood at 2.83 ± 0.23 mmol/L. This compound registered a Free fatty acids in data set [6] of 31.62 ± 7.92 mg/L. The Triglycerides in data set [6] was found to be 2.79 ± 0.30 g/L. The compound also came in with an Alkaline phosphatase activity in data set [7] of 87.6 ± 18.7 RU.

Regarding `CC(=O)[O-].CC(=O)[O-].[Zn+2]` [Zn acetate, Zinc acetate, reference compound], in data set [2], the “zinc level in kidney and liver tissues” value is on record as “significantly increased”.
